Measurements published in US8933230B2, “Phosphorus-containing group-substituted quinoline, its preparation process, medical composition containing the compounds and application” (priority 2011, dated 2015).

What was measured:
Assay in all cases: KinomeScan kinase panel
Assay type in all cases: binding
[1] = target: T1, ABL1(H396P)-phosphorylated (Homo sapiens, UniProt P00519, H396P)
T1 construct: purchased DiscoveRx Corporation (KinomeScan)
Method in brief: (§1)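 Values come from one concentration only (1000 nM) within a broad 442-kinase KinomeScan screen.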

EPHA5 = target: T2, EPHA5 (Homo sapiens, UniProt P54756)
T2 construct: purchased DiscoveRx Corporation (KinomeScan)
Method in brief: as §1

CDC2L1 = target: T3, CDC2L1 (Homo sapiens, UniProt P21127)
T3 construct: purchased DiscoveRx Corporation (KinomeScan)
Method in brief: as §1

MST2 = target: T4, MST2 (Homo sapiens, UniProt Q13188)
T4 construct: purchased DiscoveRx Corporation (KinomeScan)
T4 sequence (Q13188 whole entry): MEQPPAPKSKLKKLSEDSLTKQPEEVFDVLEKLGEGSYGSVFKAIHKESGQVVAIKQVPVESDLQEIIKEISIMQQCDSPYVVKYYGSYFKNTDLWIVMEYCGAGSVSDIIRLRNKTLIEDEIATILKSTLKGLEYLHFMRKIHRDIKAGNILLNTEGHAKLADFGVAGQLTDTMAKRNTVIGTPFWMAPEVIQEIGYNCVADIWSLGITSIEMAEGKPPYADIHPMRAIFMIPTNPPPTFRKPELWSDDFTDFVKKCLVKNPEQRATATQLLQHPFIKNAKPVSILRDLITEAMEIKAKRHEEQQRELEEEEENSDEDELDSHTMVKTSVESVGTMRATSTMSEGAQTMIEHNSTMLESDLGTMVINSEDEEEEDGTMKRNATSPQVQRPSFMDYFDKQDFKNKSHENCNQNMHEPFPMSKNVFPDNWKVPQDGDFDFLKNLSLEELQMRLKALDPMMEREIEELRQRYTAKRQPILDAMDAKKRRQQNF
Method in brief: as §1

CHEK2 = target: T5, CHEK2 (Homo sapiens, UniProt O96017)
T5 construct: purchased DiscoveRx Corporation (KinomeScan)
Method in brief: as §1

[2] = target: T6, RSK1(Kin.Dom.2-C-terminal) (Homo sapiens, UniProt Q15418)
T6 construct: Kin.Dom.2; purchased DiscoveRx Corporation
Method in brief: as §1

EPHB4 = target: T7, EPHB4 (Homo sapiens, UniProt P54760)
T7 construct: purchased DiscoveRx Corporation (KinomeScan)
T7 sequence (P54760 16-987): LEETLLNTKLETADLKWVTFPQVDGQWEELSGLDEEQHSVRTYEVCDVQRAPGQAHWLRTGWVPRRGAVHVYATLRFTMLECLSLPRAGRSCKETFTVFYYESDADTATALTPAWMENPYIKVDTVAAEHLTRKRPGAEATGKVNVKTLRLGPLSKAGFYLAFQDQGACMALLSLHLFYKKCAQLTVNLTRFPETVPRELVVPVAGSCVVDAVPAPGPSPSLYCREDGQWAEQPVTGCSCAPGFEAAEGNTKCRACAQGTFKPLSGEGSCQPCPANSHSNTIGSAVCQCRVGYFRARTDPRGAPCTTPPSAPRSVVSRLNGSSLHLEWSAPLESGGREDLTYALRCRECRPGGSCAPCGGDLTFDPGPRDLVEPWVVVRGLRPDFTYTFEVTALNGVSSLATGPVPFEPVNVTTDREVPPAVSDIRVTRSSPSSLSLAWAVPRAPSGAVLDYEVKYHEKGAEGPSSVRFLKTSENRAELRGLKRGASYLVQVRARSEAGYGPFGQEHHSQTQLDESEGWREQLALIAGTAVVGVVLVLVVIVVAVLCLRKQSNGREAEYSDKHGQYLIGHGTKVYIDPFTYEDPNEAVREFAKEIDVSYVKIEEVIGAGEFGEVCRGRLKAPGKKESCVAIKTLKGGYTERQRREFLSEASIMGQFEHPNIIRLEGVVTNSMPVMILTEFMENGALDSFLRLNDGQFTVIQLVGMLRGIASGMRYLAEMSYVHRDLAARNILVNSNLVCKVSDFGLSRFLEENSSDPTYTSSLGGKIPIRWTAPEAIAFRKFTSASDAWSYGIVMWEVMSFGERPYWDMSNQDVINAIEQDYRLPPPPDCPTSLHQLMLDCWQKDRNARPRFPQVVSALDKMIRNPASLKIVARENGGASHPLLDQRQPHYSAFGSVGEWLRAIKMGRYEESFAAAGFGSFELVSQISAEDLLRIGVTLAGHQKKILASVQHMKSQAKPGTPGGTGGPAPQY
Method in brief: as §1

AKT1 = target: T8, AKT1 (Homo sapiens, UniProt P31749)
T8 construct: purchased DiscoveRx Corporation (KinomeScan)
Method in brief: as §1

FGFR3 = target: T9, FGFR3 (Homo sapiens, UniProt P22607)
T9 construct: purchased DiscoveRx Corporation (KinomeScan)
T9 sequence (P22607 23-806): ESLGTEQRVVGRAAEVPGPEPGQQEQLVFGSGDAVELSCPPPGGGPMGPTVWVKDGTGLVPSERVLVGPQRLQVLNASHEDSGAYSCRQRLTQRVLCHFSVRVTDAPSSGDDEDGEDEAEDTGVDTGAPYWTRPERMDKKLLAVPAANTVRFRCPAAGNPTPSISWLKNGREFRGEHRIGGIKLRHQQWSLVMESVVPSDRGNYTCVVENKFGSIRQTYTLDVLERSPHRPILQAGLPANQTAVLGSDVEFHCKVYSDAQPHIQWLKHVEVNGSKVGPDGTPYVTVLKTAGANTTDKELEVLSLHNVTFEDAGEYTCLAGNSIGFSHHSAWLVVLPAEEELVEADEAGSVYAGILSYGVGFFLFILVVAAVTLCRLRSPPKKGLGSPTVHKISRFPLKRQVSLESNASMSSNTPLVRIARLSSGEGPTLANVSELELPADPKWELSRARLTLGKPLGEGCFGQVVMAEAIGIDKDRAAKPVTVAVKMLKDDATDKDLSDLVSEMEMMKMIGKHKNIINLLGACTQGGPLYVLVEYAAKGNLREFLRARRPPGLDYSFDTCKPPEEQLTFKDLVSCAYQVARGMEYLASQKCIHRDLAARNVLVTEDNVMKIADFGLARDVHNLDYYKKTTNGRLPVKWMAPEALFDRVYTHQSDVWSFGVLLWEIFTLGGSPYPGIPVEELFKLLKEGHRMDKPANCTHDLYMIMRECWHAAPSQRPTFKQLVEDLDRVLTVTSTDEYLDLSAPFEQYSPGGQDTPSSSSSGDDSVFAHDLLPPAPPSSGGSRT
Method in brief: as §1

RIOK2 = target: T10, RIOK2 (Homo sapiens, UniProt Q9BVS4)
T10 construct: purchased DiscoveRx Corporation
Method in brief: as §1

KIT(V559D, V654A) = target: T11, KIT(V559D, V654A) (Homo sapiens, UniProt P10721, V559D/V654A)
T11 construct: purchased DiscoveRx Corporation (KinomeScan)
Method in brief: as §1

NDR2 = target: T12, NDR2 (Homo sapiens, UniProt Q9Y2H1)
T12 construct: purchased DiscoveRx Corporation (KinomeScan)
Method in brief: as §1

CLK1 = target: T13, CLK1 (Homo sapiens, UniProt P49759)
T13 construct: purchased DiscoveRx Corporation (KinomeScan)
Method in brief: as §1

[3] = target: T14, JAK2(JH1domain-catalytic) (Homo sapiens, UniProt O60674)
T14 construct: JAK2(JH1domain-catalytic); purchased DiscoveRx Corporation (KinomeScan)
T14 sequence (O60674 849-1124 limits assumed): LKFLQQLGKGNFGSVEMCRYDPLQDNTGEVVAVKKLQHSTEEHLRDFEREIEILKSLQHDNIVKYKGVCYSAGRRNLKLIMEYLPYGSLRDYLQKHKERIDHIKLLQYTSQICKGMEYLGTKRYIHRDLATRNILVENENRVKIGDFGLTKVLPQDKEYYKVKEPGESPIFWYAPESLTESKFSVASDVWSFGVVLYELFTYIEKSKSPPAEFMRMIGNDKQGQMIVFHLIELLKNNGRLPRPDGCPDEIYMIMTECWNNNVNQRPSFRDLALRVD
Method in brief: as §1

CDK8 = target: T15, CDK8 (Homo sapiens, UniProt P49336)
T15 construct: purchased DiscoveRx Corporation (KinomeScan)
Method in brief: as §1

BRK = target: T16, BRK (Homo sapiens, UniProt Q13882)
T16 construct: purchased DiscoveRx Corporation (KinomeScan)
T16 sequence (Q13882 whole entry): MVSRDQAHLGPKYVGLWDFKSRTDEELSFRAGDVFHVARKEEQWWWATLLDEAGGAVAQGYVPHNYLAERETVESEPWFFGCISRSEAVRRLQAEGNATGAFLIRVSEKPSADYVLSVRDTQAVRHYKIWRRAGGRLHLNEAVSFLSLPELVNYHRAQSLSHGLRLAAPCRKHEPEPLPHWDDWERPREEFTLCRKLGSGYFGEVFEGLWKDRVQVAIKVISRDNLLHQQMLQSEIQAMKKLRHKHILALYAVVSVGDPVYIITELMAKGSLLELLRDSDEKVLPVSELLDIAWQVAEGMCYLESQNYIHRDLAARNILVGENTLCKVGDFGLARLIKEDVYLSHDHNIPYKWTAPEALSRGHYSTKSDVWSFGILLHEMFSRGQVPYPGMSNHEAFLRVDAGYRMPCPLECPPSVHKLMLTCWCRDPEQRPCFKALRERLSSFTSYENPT
Method in brief: as §1

HIPK1 = target: T17, HIPK1 (Homo sapiens, UniProt Q86Z02)
T17 construct: purchased DiscoveRx Corporation (KinomeScan)
T17 sequence (Q86Z02 whole entry): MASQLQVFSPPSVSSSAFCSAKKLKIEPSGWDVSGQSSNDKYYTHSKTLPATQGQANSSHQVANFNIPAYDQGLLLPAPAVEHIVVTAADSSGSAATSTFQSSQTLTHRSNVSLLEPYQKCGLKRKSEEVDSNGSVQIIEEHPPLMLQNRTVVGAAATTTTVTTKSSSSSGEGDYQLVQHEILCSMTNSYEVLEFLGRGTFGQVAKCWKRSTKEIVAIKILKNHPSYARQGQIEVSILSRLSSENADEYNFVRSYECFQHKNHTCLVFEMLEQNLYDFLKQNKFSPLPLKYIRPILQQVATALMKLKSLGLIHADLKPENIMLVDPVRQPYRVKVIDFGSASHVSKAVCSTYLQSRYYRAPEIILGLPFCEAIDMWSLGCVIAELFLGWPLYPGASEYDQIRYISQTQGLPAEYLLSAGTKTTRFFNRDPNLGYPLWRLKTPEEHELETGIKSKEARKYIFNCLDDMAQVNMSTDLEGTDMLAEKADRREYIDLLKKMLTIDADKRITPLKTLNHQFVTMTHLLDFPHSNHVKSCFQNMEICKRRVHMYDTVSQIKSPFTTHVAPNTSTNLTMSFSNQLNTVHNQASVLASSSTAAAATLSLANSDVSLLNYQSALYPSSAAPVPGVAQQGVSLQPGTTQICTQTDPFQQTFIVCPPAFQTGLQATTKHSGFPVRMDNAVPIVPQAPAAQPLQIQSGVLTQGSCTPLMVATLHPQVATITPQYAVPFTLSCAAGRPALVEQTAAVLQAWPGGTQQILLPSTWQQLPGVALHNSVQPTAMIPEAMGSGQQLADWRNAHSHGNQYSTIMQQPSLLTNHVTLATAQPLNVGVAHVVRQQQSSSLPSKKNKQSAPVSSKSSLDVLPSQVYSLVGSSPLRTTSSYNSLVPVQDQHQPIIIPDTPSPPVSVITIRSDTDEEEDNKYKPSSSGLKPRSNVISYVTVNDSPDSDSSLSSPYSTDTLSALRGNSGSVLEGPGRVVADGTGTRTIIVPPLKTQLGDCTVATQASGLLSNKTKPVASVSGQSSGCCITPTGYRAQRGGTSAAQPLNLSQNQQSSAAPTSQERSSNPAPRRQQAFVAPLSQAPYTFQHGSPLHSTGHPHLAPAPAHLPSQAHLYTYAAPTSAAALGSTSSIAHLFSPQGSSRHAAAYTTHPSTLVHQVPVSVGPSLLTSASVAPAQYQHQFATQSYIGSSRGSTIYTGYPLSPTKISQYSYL
Method in brief: as §1

DCAMKL3 = target: T18, DCAMKL3 (Homo sapiens, UniProt Q9C098)
T18 construct: purchased DiscoveRx Corporation (KinomeScan)
Method in brief: as §1

[4] = target: T19, ABL1(Y253F)-phosphorylated (Homo sapiens, UniProt P00519, Y253F)
T19 construct: purchased DiscoveRx Corporation (KinomeScan)
Method in brief: as §1

TXK = target: T20, TXK (Homo sapiens, UniProt P42681)
T20 construct: purchased DiscoveRx Corporation (KinomeScan)
Method in brief: as §1

[5] = target: T21, JAK3(JH1domain-catalytic) (Homo sapiens, UniProt P52333)
T21 construct: JAK3(JH1domain-catalytic); purchased DiscoveRx Corporation (KinomeScan)
T21 sequence (P52333 822-1111 limits assumed): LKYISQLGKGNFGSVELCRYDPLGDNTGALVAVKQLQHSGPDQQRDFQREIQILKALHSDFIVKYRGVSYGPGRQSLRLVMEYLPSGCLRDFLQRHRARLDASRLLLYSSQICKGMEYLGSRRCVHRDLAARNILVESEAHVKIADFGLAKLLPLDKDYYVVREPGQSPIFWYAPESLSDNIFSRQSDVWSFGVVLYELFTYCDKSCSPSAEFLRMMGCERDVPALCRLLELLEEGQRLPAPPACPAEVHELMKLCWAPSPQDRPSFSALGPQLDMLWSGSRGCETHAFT
Method in brief: as §1

CDKL1 = target: T22, CDKL1 (Homo sapiens, UniProt Q00532)
T22 construct: purchased DiscoveRx Corporation (KinomeScan)
T22 sequence (Q00532 whole entry): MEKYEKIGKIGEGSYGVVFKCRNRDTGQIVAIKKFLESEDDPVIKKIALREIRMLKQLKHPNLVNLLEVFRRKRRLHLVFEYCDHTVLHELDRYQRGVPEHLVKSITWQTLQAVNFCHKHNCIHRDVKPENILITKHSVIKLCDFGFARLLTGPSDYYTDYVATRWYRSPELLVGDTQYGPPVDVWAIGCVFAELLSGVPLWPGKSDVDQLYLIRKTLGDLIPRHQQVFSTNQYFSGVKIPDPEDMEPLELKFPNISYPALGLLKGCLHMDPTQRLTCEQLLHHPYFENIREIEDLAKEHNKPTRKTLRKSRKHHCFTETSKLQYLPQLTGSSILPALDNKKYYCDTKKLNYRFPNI
Method in brief: as §1

JNK2 = target: T23, JNK2 (Homo sapiens, UniProt P45984)
T23 construct: purchased DiscoveRx Corporation (KinomeScan)
Method in brief: as §1

JNK1 = target: T24, JNK1 (Homo sapiens, UniProt P45983)
T24 construct: purchased DiscoveRx Corporation (KinomeScan)
Method in brief: as §1

ASK1 = target: T25, ASK1 (Homo sapiens, UniProt Q99683)
T25 construct: purchased DiscoveRx Corporation (KinomeScan)
Method in brief: as §1

[6] = target: T26, ABL1(T315I)-phosphorylated (Homo sapiens, UniProt P00519, T315I)
T26 construct: purchased DiscoveRx Corporation (KinomeScan)
Method in brief: as §1

RIPK4 = target: T27, RIPK4 (Homo sapiens, UniProt P57078)
T27 construct: purchased DiscoveRx Corporation
Method in brief: as §1

TIE1 = target: T28, TIE1 (Homo sapiens, UniProt P35590)
T28 construct: purchased DiscoveRx Corporation (KinomeScan)
Method in brief: as §1

ICK = target: T29, ICK (Homo sapiens, UniProt Q9UPZ9)
T29 construct: purchased DiscoveRx Corporation (KinomeScan)
Method in brief: as §1

CDKL3 = target: T30, CDKL3 (Homo sapiens, UniProt Q8IVW4)
T30 construct: purchased DiscoveRx Corporation (KinomeScan)
Method in brief: as §1

PKN2 = target: T31, PKN2 (Homo sapiens, UniProt Q16513)
T31 construct: purchased DiscoveRx Corporation (KinomeScan)
Method in brief: as §1

PIM1 = target: T32, PIM1 (Homo sapiens, UniProt P11309)
T32 construct: purchased DiscoveRx Corporation (KinomeScan)
Method in brief: as §1

CSNK1D = target: T33, CSNK1D (Homo sapiens, UniProt P48730)
T33 construct: purchased DiscoveRx Corporation (KinomeScan)
Method in brief: as §1

[7] = target: T34, RPS6KA4(kin.Dom.2-C-termimal) (Homo sapiens, UniProt O75676)
T34 construct: kin.Dom.2; purchased DiscoveRx Corporation
Method in brief: as §1

CCOP(=O)(CN1CCC(COc2cc3nccc(Oc4ccc(NC(=O)C5(C(=O)Nc6ccc(F)cc6)CC5)cc4F)c3cc2OC)CC1)OCC [Example 10, N1-[4-[[7-[[1-(diethoxyphosphorylmethyl)-4-piperidinyl]methoxyl]-6-methoxyl-4-quinolyl]oxyl]-3-fluorophenyl]-N1′-(4-fluorophenyl)cyclopropane-1,1-dicarboxamide]
% Ctrl@1000 nM [1]: 63 % Ctrl
% Ctrl@1000 nM (EPHA5): 3.5 % Ctrl
% Ctrl@1000 nM (CDC2L1): 100 % Ctrl
% Ctrl@1000 nM (MST2): 100 % Ctrl
% Ctrl@1000 nM (CHEK2): 35 % Ctrl
% Ctrl@1000 nM [2]: 100 % Ctrl
% Ctrl@1000 nM (EPHB4): 12 % Ctrl
% Ctrl@1000 nM (AKT1): 100 % Ctrl
% Ctrl@1000 nM (FGFR3): 69 % Ctrl
% Ctrl@1000 nM (RIOK2): 100 % Ctrl
% Ctrl@1000 nM (KIT(V559D, V654A)): 4.1 % Ctrl
% Ctrl@1000 nM (NDR2): 82 % Ctrl
% Ctrl@1000 nM (CLK1): 89 % Ctrl
% Ctrl@1000 nM [3]: 100 % Ctrl
% Ctrl@1000 nM (CDK8): 76 % Ctrl
% Ctrl@1000 nM (BRK): 3.0 % Ctrl
% Ctrl@1000 nM (HIPK1): 92 % Ctrl
% Ctrl@1000 nM (DCAMKL3): 100 % Ctrl
% Ctrl@1000 nM [4]: 32 % Ctrl
% Ctrl@1000 nM (TXK): 62 % Ctrl
% Ctrl@1000 nM [5]: 100 % Ctrl
% Ctrl@1000 nM (CDKL1): 100 % Ctrl
% Ctrl@1000 nM (JNK2): 93 % Ctrl
% Ctrl@1000 nM (JNK1): 80 % Ctrl
% Ctrl@1000 nM (ASK1): 100 % Ctrl
% Ctrl@1000 nM [6]: 75 % Ctrl
% Ctrl@1000 nM (RIPK4): 89 % Ctrl
% Ctrl@1000 nM (TIE1): 4 % Ctrl
% Ctrl@1000 nM (ICK): 95 % Ctrl
% Ctrl@1000 nM (CDKL3): 100 % Ctrl
% Ctrl@1000 nM (PKN2): 2.6 % Ctrl
% Ctrl@1000 nM (PIM1): 96 % Ctrl
% Ctrl@1000 nM (CSNK1D): 100 % Ctrl
% Ctrl@1000 nM [7]: 100 % Ctrl
